Series [1] concerns the target T1, Human CCR3 (Homo sapiens, UniProt P51677).
T1 construct: The cloned CCR3 cDNA was constructed with pcDNA3 vector and transfected into a IC562 cell line; expressed in transfected cells
T1 sequence (P51677 1-355): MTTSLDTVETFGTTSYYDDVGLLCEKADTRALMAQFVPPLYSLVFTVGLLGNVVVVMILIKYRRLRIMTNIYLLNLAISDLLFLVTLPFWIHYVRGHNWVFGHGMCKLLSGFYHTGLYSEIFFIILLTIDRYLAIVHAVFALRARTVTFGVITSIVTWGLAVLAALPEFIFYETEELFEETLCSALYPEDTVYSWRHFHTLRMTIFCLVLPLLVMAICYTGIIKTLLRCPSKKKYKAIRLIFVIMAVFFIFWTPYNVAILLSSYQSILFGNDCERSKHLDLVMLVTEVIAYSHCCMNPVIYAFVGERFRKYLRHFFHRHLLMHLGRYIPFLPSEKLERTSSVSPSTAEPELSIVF
Kind of series: Receptor binding assay (RBA), [125I]-eotaxin. The following applies: human CCR3-transformed K562 cells, 0.1 nM [125I]-eotaxin; compounds of about 40 to 90% purity; read-out: Activity grade RBA (IC50 class). As for the experimental part: [Determination of IC50 Values of Compounds in Receptor Binding Assay]
• Human CCR3-transformed K562 cells were used. The cloned CCR3 cDNA was constructed with pcDNA3 vector and transfected into a IC562 cell line. The human CCR3-transformed K562 cells were maintained in RPMI-1640 (Cat.#22400-089, Life Technologies) supplemented with 10% FCS (Cat.#A-1115-L, Hyclone), 55 μM 2-mercaptoethanol (Cat.#21985-023, Life Technologies), 1 mM sodium pyruvate (Cat.#11360-070, Life Technologies), 100 units/ml of penicillin G and 100 μg/ml of streptomycin (Cat.#15140-122, Life Technologies), and 0.4 mg/ml of Geneticin (Cat.#10131-035, Life Technologies)(hereinafter called “culture medium”). Before the receptor binding assay, cells were pretreated with 5 mM sodium butyrate (Cat.#193-01522, Wako)-containing the culture medium (2×10^5 cells/ml) for 20-24 hours to increase the expression of CCR3. (2) Receptor Binding Assay (RBA) • Butyrate-pretreated cells, suspended in binding buffer (25 mM HEPES pH 7.6, 1 mM CaCl2, 5 mM MgCl2, 0.5% BSA, 0.1% NaN3) at a cell density of 2×10^6 cells/ml, were added into 60 μl/well in the 96-well round bottom polypropylene plate (Cat.#3365, Costar). Compounds, diluted with the binding buffer (4-times higher concentration of the final concentration), were added into 30 μl/well in the polypropylene plate. [^125I]-labeled human eotaxin (Cat.#IM290, Amersham Pharmacia Biotech), diluted with the binding buffer at the concentration of 0.4 nM (final concentration; 0.1 nM), was added into 30 μl/well in the polypropylene plate. Total 120 μl/well of binding reaction mixture (60 μl/well of cell suspension, 30 μl/well of compound solution, and 30 μl/well of [^125I]-labeled eotaxin) were incubated in the polypropylene plate for 1 hour at room temperature after the incubation, 100 μl/well of the reaction mixture was transferred to a filtration plate (Cat.#MAFB-N0B, Millipore), and washed with the washing buffer (25 mM HEPES pH 7.6, 1 mM CaCl2, 5 mM MgCl2, 0.5% BSA, 0.1% NaN3, 0.5 M NaCl) twice. The 96-well filtration plate was pretreated with 100 μl/well of 0.5% polyethylenimine (Cat.#P-3143, Sigma) for 2-4 hours at room temperature and washed with the washing buffer twice before use. The non-specific binding was determined by parallel incubation in the presence of 500 nM of non-labeled eotaxin (Cat.#23209, Genzyme Techne). The radioactivities remained on the filter were measured by liquid scintillation counter (TopCount™, Packard) after an addition of 45 μl/well of scintillant (Microscint20, Cat.#6013621, Packard). The inhibition percent at each concentration of compound was calculated, and IC50 values were determined from the inhibition curve. [Determination of IC50 Values of Compounds in Calcium Mobilization Assay] (IC50 Ca2+) (1) Cell • Human CCR3-transformed K562 cells were used. The human CCR3-transformed K562 cells were maintained in RPMI-1640 supplemented with 10% FCS, 55 μM 2-mercaptoethanol (Cat.#21985-023, Life Technologies), 1 mM sodium pyruvate, 100 units/ml of penicillin G and 100 μg/ml of streptomycin and 0.4 mg/ml of Geneticin. Before the calcium mobilization assay, cells were pretreated with 5 mM sodium butyrate-containing the culture medium (2×10^5 cells/ml) for 20-24 hours to increase the expression of CCR3. (2) Calcium Mobilization Assay • Butyrate-pretreated cells were loaded with Fluo-3AM (Cat.#F-1242, Molecular Probes) in loading buffer (Hanks' solution Cat.#05906 Nissui, 20 mM HEPES pH 7.6, 0.1% BSA, 1 mM probenecid Cat.#P-8761 Sigma, 1 μM Fluo-3AM, 0.01% pluronic F-127 Cat.#P-6866 Molecular Probes) at a cell density of 1×10^7 cells/ml. Then, cells were washed with calcium assay buffer (Hanks' solution Cat.#05906 Nissui, 20 mM HEPES pH 7.6, 0.1% BSA, 1 mM Probenecid Cat.#P-8761 Sigma). The cell suspension (3.3×10^6 cells/ml) was added into 60 μl/well in the 96-well clear bottom black plate (Cat.#3904, Costar). […]

For series [2], the target named is T1, Human CCR3. As to the kind of experiment: Calcium mobilization assay, eotaxin-stimulated. It is filed as cell-based. Conditions: human CCR3-transformed K562 cells, 10 nM eotaxin; compounds of about 40 to 90% purity; read-out: Activity grade Ca2+ (IC50 class). The method, boiled down:
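K562 cells transfected with human CCR3, pretreated 20–24 h with 5 mM sodium butyrate, loaded with Fluo-3AM. Compound added 10 min before stimulation with 10 nM (final) eotaxin; cytoplasmic calcium read over 60 s by FDSS, IC50 from inhibition curve.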
(Calcium flux is commonly read through the fluorescence of an indicator in the cells.)

As usually defined, the IC50 is the concentration at which inhibition is half-maximal. Usually melting point stands for the temperature, or range, at which the solid turns liquid.

Molecules are shown by their SMILES. Structures can show the parent of a compound that is named as a salt. Bounds are passed on as bounds.

Consider `Cc1cc(C)cc(Oc2ccc([N+](=O)[O-])cc2S(=O)(=O)N2CCN(Cc3ccccc3)CC2)c1` [Example 4-9], for which the melting point fell in the range of 123 to 124 °C. Moreover, the IC50 on Human CCR3 [1] is more than 10000 nM.

`N#Cc1ccc(Oc2cc(Cl)cc(Cl)c2)c(S(=O)(=O)N2CCN3CCCC3C2)c1` (stereo not shown) [Example 13-12] yielded a melting point of 161 °C. Moreover, the IC50 at Human CCR3 [1] was less than 1000 nM.

Compound `Cc1cc(C)cc(Oc2ccc([N+](=O)[O-])cc2S(=O)(=O)N2CCN(C=O)CC2)c1` [Example 4-10] showed a melting point of 210 to 212 °C. Further, the IC50 on Human CCR3 [1] is more than 10000 nM.

As for `O=[N+]([O-])c1ccc(Oc2ccccc2F)c(S(=O)(=O)N2CCNCC2)c1` [Example 1-14], the melting point lay within 118 to 120 °C. In addition, the IC50 at Human CCR3 [1] was 1000 to 10000 nM.

As to `O=[N+]([O-])c1ccc(Oc2cccc(Cl)c2Cl)c(S(=O)(=O)N2CCNCC2)c1` [Example 1-82], the melting point was in the range of 173 to 174 °C. The IC50 at Human CCR3 [1] lay within 1000 to 10000 nM.

Take `Cc1cccc(Oc2ccc([N+](=O)[O-])cc2S(=O)(=O)N2CCNCC2)c1.Cl` [Example 1-17]: the melting point fell in the range of 242 to 244 °C. The IC50 on Human CCR3 [1] was less than 1000 nM.

Consider `Cl.O=[N+]([O-])c1ccc(Oc2cccc(F)c2)c(S(=O)(=O)N2CCNCC2)c1` [Example 1-15], for which the melting point is 227 to 229 °C. For the same compound, the IC50 at Human CCR3 [1] is 1000 to 10000 nM.

As to `CN(C)c1ccc(NS(=O)(=O)c2cc([N+](=O)[O-])ccc2Oc2cc(Cl)cc(Cl)c2)cc1` [Example 4-25], the melting point is 226 °C. Besides, the IC50 on Human CCR3 [1] fell in the range of 1000 to 10000 nM.

In the case of `Cc1cc(C)cc(Oc2ccc([N+](=O)[O-])cc2S(=O)(=O)N2CCC(N3CCCC3)CC2)c1` [Example 4-11], the melting point lay within 156 to 158 °C. For the same compound, at Human CCR3 [1], the IC50 is less than 1000 nM.

For `O=[N+]([O-])c1ccc(Oc2ccc(Cl)c(Cl)c2)c(S(=O)(=O)N2CCNCC2)c1` [Example 1-83], the melting point lay within 167 to 168 °C. In addition, the IC50 on Human CCR3 [1] is more than 10000 nM.

In turn, `Cc1ccc(Oc2ccc([N+](=O)[O-])cc2S(=O)(=O)N2CCNCC2)cc1.Cl` [Example 1-16] gave a melting point of 188 to 192 °C. Besides, the IC50 at Human CCR3 [1] was more than 10000 nM.

As for `Cc1cc(C)cc(Nc2ccc([N+](=O)[O-])cc2S(=O)(=O)N2CCNCC2)c1` [Example 3-1, N-(3,5-dimethyl-phenyl)-4-nitro-2-(1-piperazinylsulfonyl)aniline dihydrochloride], at Human CCR3 [1], the IC50 was less than 1000 nM.

In turn, `Cl.O=[N+]([O-])c1ccc(Oc2c(F)c(F)c(F)c(F)c2F)c(S(=O)(=O)N2CCNCC2)c1` [Example 1-73] had a melting point of 297 °C. The IC50 at Human CCR3 [2] is less than 1000 nM.
